Results: patent US20240368191A1, “HETEROCYCLIC COMPOUNDS AND USES THEREOF” (Kumquat Biosciences Inc., priority 2021, published 2024)

Molecular target: T1, KRAS G12D 1-169 (His-tagged, GDP-loaded) (Homo sapiens, UniProt P01116, G12D)
T1 construct: His -tagged GDP-loaded G12D 1-169; made in house; host or cells: E. coli, e.g. BL21 (DE3)
Experiment: Covalent modification of KRAS protein by intact-protein LC-MS
Format: binding
Conditions: comparable or same conditions as K-Ras G12S
Protocol: Test compounds are prepared as 10 mM stock solutions in DMSO (Fisher cat #BP231-100). KRAS protein (His -tagged GDP-loaded wildtype 1-169, His -tagged GDP-loaded G12S 1-169 or His -tagged GDP-loaded G12D 1-169) is diluted to ˜2 μM in appropriate buffer (e.g., a Hepes buffer at physiological conditions). For testing KRAS modification, compounds are diluted to 50× final test concentration in DMSO in 96-well storage plates. 2 μl of the diluted 50× compounds are added to appropriate wells in the PCR plate (Fisher cat #AB-0800). ˜49 μl of the stock protein solution is added to each well of the 96-well PCR plate. Reactions are mixed carefully. The plate is sealed well with aluminum plate seal, and stored in drawer at room temperature for 24 hrs. 5 μl of 2% formic acid (Fisher cat #A117-50) in MilliQ H2O is then added to each well followed by mixing with a pipette. The plate is then resealed with aluminum seal and stored until mass spectrometry analysis.
The extent of covalent modification of KRAS proteins was determined by liquid chromatography electrospray mass spectrometry analysis of the intact proteins on a Thermo Q-Exactive Plus mass spectrometer. 20 μl of sample was injected onto a bioZen 3.6 μm Intact C4 column (Phenomenex cat #00B-4767-AN) placed in a column oven set to 40° C. and separated using a suitable LC gradient from ˜20% to ˜60% solvent B. Solvent A was 0.1% formic acid and solvent B was 0.1% formic acid in acetonitrile. HESI source settings were set to 40, 5 and 1 for the sheath, auxiliary and sweep gas flow, respectively. The spray voltage was 4 kV, and the capillary temperature was 320° C. S-lens RF level was 50 and auxiliary gas heater temperature was set to 200° C. The mass spectrometry was acquired using a scan range from 650 to 1750 m/z using positive polarity at a mass resolution of 70,000, AGC target of 1e6 ions and maximum injection time of 250 ms. The recorded protein mass spectrum was deconvoluted from the raw data file using Protein Deconvolution v4.0 (Thermo). The protein mass and adduct masses were exported with their peak intensities. The peak intensities for the unmodified and modified protein were used to calculate the percent covalent modification of the KRAS protein based on the following equation: % KRAS protein modification=((KRAS−compound)/(KRAS)+(KRAS−Compound))*100.

T1 sequence (P01116 1-169 isoform P01116-2 G12D): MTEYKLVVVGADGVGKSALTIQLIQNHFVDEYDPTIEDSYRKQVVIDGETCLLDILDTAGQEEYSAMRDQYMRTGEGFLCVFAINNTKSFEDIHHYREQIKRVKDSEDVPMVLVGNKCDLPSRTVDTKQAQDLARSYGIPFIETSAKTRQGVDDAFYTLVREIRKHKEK

Row | Structure (SMILES) | covalent labeling of K-Ras G12D
1 | N#Cc1c(N)sc2c(F)ccc(-c3c(Cl)cc4c(N5CC6(CCCCN(C(=O)n7cncn7)C6)C5)nc(OC[C@@]56CCCN5C[C@H](F)C6)nc4c3F)c12 [Compound A285, 4-(4-(6-(1H-1,2,4-triazole-1-carbonyl)-2,6-diazaspiro[3.6]-decan-2-yl)-6-chloro-8-fluoro-2-(((2R,7aS)-2-fluorotetra-hydro-1H-pyrrolizin-7a(5H)-yl)methoxy)quinazolin-7-yl)-2-amino-7-fluorobenzo[b]thio-phene-3-carbonitrile] | essentially no detectable labeling
2 | N#Cc1c(N)sc2c(F)ccc(-c3c(Cl)cc4c(N5CCOC6(CN(C(=O)n7ccnn7)C6)C5)nc(OC[C@@]56CCCN5C[C@H](F)C6)nc4c3F)c12 [Compound A195, 4-(4-(2-(1H-1,2,3-triazole-1-carbonyl)-5-oxa-2,8-diazaspiro-[3.5]nonan-8-yl)-6-chloro-8-fluoro-2-(((2R,7aS)-2-fluoro-tetrahydro-1H-pyrrolizin-7a(5H)-yl)methoxy)quinazolin-7-yl)-2-amino-7-fluorobenzo-[b]thiophene-3-carbonitrile] | essentially no detectable labeling
3 | Nc1nc2c(-c3c(Cl)cc4c(N5CCC56CCCN(C(=O)n5cncn5)CC6)nc(OC[C@@]56CCCN5C[C@H](F)C6)nc4c3F)ccc(F)c2s1 (stereo partly drawn) [Compound A209, (1-(7-(2-amino-7-fluorobenzo-[d]thiazol-4-yl)-6-chloro-8-fluoro-2-(((2R,7aS)-2-fluoro-tetrahydro-1H-pyrrolizin-7a(5H)-yl)methoxy)quinazolin-4-yl)-1,7-diazaspiro[3.6]decan-7-yl)(1H-1,2,4-triazol-1-yl)-methanone] | essentially no detectable labeling
4 | N#Cc1c(N)sc2c(F)ccc(-c3c(Cl)cc4c(OC5CCCCN(C(=O)n6cncn6)C5)nc(OC[C@@]56CCCN5C[C@H](F)C6)nc4c3F)c12 (stereo partly drawn) [Compound A169, 4-(4-((1-(1H-1,2,4-triazole-1-carbonyl)azepan-3-yl)oxy)-6-chloro-8-fluoro-2-(((2R,7aS)-2-fluorotetrahydro-1H-pyrrolizin-7a(5H)-yl)methoxy)quinazolin-7-yl)-2-amino-7-fluorobenzo-[b]thiophene-3-carbonitrile] | essentially no detectable labeling
5 | Cc1nc(C)n(C(=O)N2CC3(C2)CN(c2nc(OC[C@@]45CCCN4C[C@H](F)C5)nc4c(F)c(-c5ccc(F)c6sc(N)c(C#N)c56)c(Cl)cc24)CCO3)n1 [Compound A283, 2-amino-4-(6-chloro-4-(2-(3,5-dimethyl-1H-1,2,4-triazole-1-carbonyl)-5-oxa-2,8-diazaspiro-[3.5]nonan-8-yl)-8-fluoro-2-(((2R,7aS)-2-fluorotetrahydro-1H-pyrrolizin-7a(5H)-yl)meth-oxy)quinazolin-7-yl)-7-fluoro-benzo[b]thiophene-3-carbonitrile] | essentially no detectable labeling
6 | Nc1nc2c(-c3c(Cl)cc4c(N5CCCC6(CN(C(=O)n7cncn7)CCO6)C5)nc(OC[C@@]56CCCN5C[C@H](F)C6)nc4c3F)ccc(F)c2s1 (stereo partly drawn) [Compound A125, (8-(7-(2-amino-7-fluorobenzo-[d]thiazol-4-yl)-6-chloro-8-fluoro-2-(((2R,7aS)-2-fluoro-tetrahydro-1H-pyrrolizin-7a(5H)-yl)methoxy)quinazolin-4-yl)-1-oxa-4,8-diazaspiro[5.5]-undecan-4-yl)(1H-1,2,4-triazol-1-yl)methanone] | essentially no detectable labeling
7 | Cc1nc(C)n(C(=O)N2CC3(COCCN(c4nc(OC[C@@]56CCCN5C[C@H](F)C6)nc5c(F)c(-c6ccc(F)c7sc(N)c(C#N)c67)c(Cl)cc45)C3)C2)n1 [Compound A185, 2-amino-4-(6-chloro-4-(2-(3,5-dimethyl-1H-1,2,4-triazole-1-carbonyl)-6-oxa-2,9-diazaspiro-[3.6]decan-9-yl)-8-fluoro-2-(((2R,7aS)-2-fluorotetrahydro-1H-pyrrolizin-7a(5H)-yl)meth-oxy)quinazolin-7-yl)-7-fluoro-benzo[b]thiophene-3-carbonitrile] | essentially no detectable labeling
8 | N#Cc1c(N)sc2c(F)ccc(-c3ncc4c(N5CCCC6(CN(C(=O)n7cncn7)C6)C5)nc(OC[C@@]56CCCN5C[C@H](F)C6)nc4c3F)c12 [Compound A134, 4-(4-(2-(1H-1,2,4-triazole-1-carbonyl)-2,6-diazaspiro[3.5]-nonan-6-yl)-8-fluoro-2-(((2R,7aS)-2-fluorotetrahydro-1H-pyrrolizin-7a(5H)-yl)meth-oxy)pyrido[4,3-d]pyrimidin-7-yl)-2-amino-7-fluorobenzo[b]-thiophene-3-carbonitrile] | essentially no detectable labeling
9 | Nc1nc2c(-c3c(Cl)cc4c(N5CCCCC6(CN(C(=O)n7cncn7)C6)C5)nc(OC[C@@]56CCCN5C[C@H](F)C6)nc4c3F)ccc(F)c2s1 [Compound A265, (6-(7-(2-amino-7-fluorobenzo-[d]thiazol-4-yl)-6-chloro-8-fluoro-2-(((2R,7aS)-2-fluoro-tetrahydro-1H-pyrrolizin-7a(5H)-yl)methoxy)quinazolin-4-yl)-2,6-diazaspiro[3.6]decan-2-yl)(1H-1,2,4-triazol-1-yl)-methanone] | essentially no detectable labeling
10 | N#Cc1c(N)sc2c(F)ccc(-c3c(Cl)cc4c(N5CCCC6(CCN(C(=O)n7cncn7)C6)C5)nc(OC[C@@]56CCCN5C[C@H](F)C6)nc4c3F)c12 (stereo partly drawn) [Compound A269, 4-(4-(2-(1H-1,2,4-triazole-1-carbonyl)-2,7-diazaspiro[4.5]-decan-7-yl)-6-chloro-8-fluoro-2-(((2R,7aS)-2-fluorotetrahydro-1H-pyrrolizin-7a(5H)-yl)meth-oxy)quinazolin-7-yl)-2-amino-7-fluorobenzo[b]thiophene-3-carbonitrile] | essentially no detectable labeling
11 | C#Cc1c(F)ccc2cc(O)cc(-c3ncc4c(N5CCOCC6(CN(C(=O)n7cnc(C)n7)C6)C5)nc(OC[C@@]56CCCN5C[C@H](F)C6)nc4c3F)c12 [Compound A298, (9-(7-(8-ethynyl-7-fluoro-3-hydroxynaphthalen-1-yl)-8-fluoro-2-(((2R,7aS)-2-fluoro-tetrahydro-1H-pyrrolizin-7a(5H)-yl)methoxy)pyrido[4,3-d]pyrimidin-4-yl)-6-oxa-2,9-diazaspiro[3.6]decan-2-yl)(3-methyl-1H-1,2,4-triazol-1-yl)-methanone] | essentially no detectable labeling
12 | N#Cc1c(N)sc2c(F)ccc(-c3ncc4c(N5CCOC6(CN(C(=O)n7cncn7)C6)C5)nc(OC[C@@]56CCCN5C[C@H](F)C6)nc4c3F)c12 [Compound A161, 4-(4-(2-(1H-1,2,4-triazole-1-carbonyl)-5-oxa-2,8-diaza-spiro[3.5]nonan-8-yl)-8-fluoro-2-(((2R,7aS)-2-fluorotetrahydro-1H-pyrrolizin-7a(5H)-yl)meth-oxy)pyrido[4,3-d]pyrimidin-7-yl)-2-amino-7-fluorobenzo[b]-thiophene-3-carbonitrile] | essentially no detectable labeling
